Measurements taken from patent US9631050B2, “Antimicrobial cationic polycarbonates” (International Business Machines Corporation, priority 2013, dated 2017).

Tested on: mammalian red blood cells
Experimental: HC50 is defined as the concentration (in mg/L) of cationic polymer that causes 50% of mammalian red blood cells to undergo hemolysis. HC50 values of 500 mg/L or higher are desirable.
Fresh rabbit blood cells or rat blood cells were subjected to 25× dilution with phosphate buffered saline (PBS) to obtain an approximate 4% v/v suspension for use in this experiment. Red blood cell suspension (300 microliters) was added to each tube containing an equal volume (300 microliters) of polymer solution in PBS (with final polymer concentrations ranging from 3.9-500 mg/L). The tubes were then incubated at 37° C. for 1 hour before they were centrifuged at 1000×g for 5 min. Aliquots (100 microliters) of supernatant were transferred to each well of a 96-well plate and analyzed for hemoglobin release at 576 nm using a microplate reader (TECAN, Switzerland). Red blood cells suspension incubated with PBS was used as negative control. Absorbance of red blood cells lyzed with 0.1% v/v Triton X-100 was used as the positive control and taken to be 100% hemolytic. Percentage of hemolysis was calculated using the following formula: Hemolysis (%)=[(O.D.576 nm of treated sample−O.D.576 nm of negative control)/(O.D.576 nm of positive control−O.D.576 nm of negative control)]×100. Data are expressed as mean±standard deviations of 4 replicates.

Butyl imidazole [Example 36]
HC50: 250 mg/L
